Reference: ChEMBL document CHEMBL5252637, “Identification of a new class of proteasome inhibitors based on a naphthyl-azotricyclic-urea-phenyl scaffold” (RSC Med Chem, 2023)

How the values were obtained:
[1] = biological target: T1, Proteasome Macropain subunit MB1 (Homo sapiens, UniProt P28074); experiment: Inhibition of human 20S constitutive proteosome beta5c subunit using Suc-LLVY-AMC as substrate measured after 10 mins by fluorescence based analysis
T1 sequence (P28074 whole entry): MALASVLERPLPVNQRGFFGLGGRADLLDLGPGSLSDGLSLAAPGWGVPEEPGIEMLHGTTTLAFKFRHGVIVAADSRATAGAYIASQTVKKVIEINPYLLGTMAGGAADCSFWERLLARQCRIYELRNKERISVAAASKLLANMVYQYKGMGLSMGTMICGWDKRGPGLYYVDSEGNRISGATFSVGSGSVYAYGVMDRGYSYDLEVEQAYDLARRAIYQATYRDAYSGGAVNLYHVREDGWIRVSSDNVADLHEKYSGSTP

[2] = biological target: T1, Proteasome Macropain subunit MB1; experiment: Competitive inhibition of human 20S constitutive proteosome beta5c subunit using Suc-LLVY-AMC as substrate measured after 10 mins by fluorescence based analysis

Question: Which IC50 [1] does the source give for `COc1ccccc1NC(=O)Nc1ccc2n(c1=O)C[C@@H]1C[C@H]2CN(C(=O)c2ccccn2)C1` here?
Answer: 560 µM

Question: Which IC50 [1] does the source give for `N#Cc1cccc(NC(=O)Nc2ccc3n(c2=O)C[C@@H]2C[C@H]3CN(C(=O)c3ccccc3)C2)c1` here?
Answer: 201 µM

Question: What does the source list for `COc1ccccc1NC(=O)Nc1ccc2n(c1=O)C[C@@H]1C[C@H]2CN(C(=O)c2ccc3ccccc3c2)C1`?
Answer: IC50 [1]: 6.65 µM; Ki [2]: 4.6 µM

Question: `N#Cc1cccc(NC(=O)Nc2ccc3n(c2=O)C[C@@H]2C[C@H]3CN(C(=O)c3ccc4ccccc4c3)C2)c1` was tested. Which IC50 [1] did it give?
Answer: 10.3 µM

Question: And the Ki [2]?
Answer: 3.42 µM

Question: Which IC50 [1] does the source give for `CC(=O)N1C[C@H]2C[C@@H](C1)c1ccc(NC(=O)Nc3cccc(C#N)c3)c(=O)n1C2` here?
Answer: 491 µM

Question: For `O=C(Nc1ccccc1)Nc1ccc2n(c1=O)C[C@@H]1C[C@H]2CN(C(=O)c2ccc3ccccc3c2)C1`, which IC50 [1] is on record?
Answer: 11.1 µM

Question: And the Ki [2]?
Answer: 9.69 µM

Question: For `O=C(Nc1ccc(Cl)cc1)Nc1ccc2n(c1=O)C[C@@H]1C[C@H]2CN(C(=O)c2ccc3ccccc3c2)C1`, which IC50 [1] is on record?
Answer: 3.43 µM

Question: And the Ki [2]?
Answer: 1.14 µM

Question: With `O=C(Nc1ccccc1)Nc1ccc2n(c1=O)C[C@@H]1C[C@H]2CN(C(=O)c2ccccn2)C1` as the compound, how does the IC50 [1] read?
Answer: > 500 µM

Question: `N#Cc1cccc(NC(=O)Nc2ccc3n(c2=O)C[C@@H]2C[C@H]3CN(C(=O)c3cccnc3)C2)c1` was tested. Which IC50 [1] did it give?
Answer: 440 µM
